Assay results reported in US9376442B2, “Methylpyrrolopyrimidinecarboxamides” (Takeda GmbH, priority 2009, dated 2016).

How the values were obtained:
[1] = biological target: T1, PDE4B1 (Homo sapiens, UniProt Q07343); assay: Inhibition of type 4 phosphodiesterase (PDE4) activity, modified SPA test with recombinant PDE4B1 expressed in SF21 insect cells; format: biochemical; conditions: recombinant PDE4B1, 0.5 μM cAMP, read-out: PDE4B1 inhibitory values [measured as −log IC50 (mol/l)] (converted)
T1 construct: made in house; host or cells: SF21 insect cells (baculovirus; pCRBac vector), 1000 x g supernatant of homogenate
T1 sequence (Q07343 whole entry): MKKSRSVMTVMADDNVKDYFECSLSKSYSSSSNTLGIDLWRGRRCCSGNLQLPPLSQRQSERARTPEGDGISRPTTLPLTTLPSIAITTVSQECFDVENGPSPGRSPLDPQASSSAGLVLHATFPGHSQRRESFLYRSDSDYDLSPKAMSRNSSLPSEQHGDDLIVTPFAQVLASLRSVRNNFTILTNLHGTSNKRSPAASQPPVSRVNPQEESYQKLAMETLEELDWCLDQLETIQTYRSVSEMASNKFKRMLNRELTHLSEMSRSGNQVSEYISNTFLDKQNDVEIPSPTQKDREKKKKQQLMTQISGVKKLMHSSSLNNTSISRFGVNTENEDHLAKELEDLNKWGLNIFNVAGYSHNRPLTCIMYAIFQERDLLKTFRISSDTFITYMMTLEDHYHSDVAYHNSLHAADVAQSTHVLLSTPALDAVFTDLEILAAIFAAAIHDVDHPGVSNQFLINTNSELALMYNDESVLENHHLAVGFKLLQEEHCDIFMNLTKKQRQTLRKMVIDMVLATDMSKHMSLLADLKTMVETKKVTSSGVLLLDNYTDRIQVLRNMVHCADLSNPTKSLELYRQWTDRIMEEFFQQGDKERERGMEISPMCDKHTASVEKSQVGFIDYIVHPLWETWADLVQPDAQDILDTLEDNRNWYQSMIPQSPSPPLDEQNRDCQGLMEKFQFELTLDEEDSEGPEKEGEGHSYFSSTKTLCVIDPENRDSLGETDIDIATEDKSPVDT
Experimental: Method for Measuring Inhibition of the Type 4 Phosphodiesterase (PDE4) Activity:
The PDE4B1 (GB no. L20966) was a gift of Prof. M. Conti (Stanford University, USA). It was amplified from the original plasmid (pCMV5) via PCR with primers Rb18 (5′-[…]-3′) and Rb10 (5′-[…]-3′) and cloned into the pCRBac vector (Invitrogen, Groningen, NL).
The recombinant baculovirus was prepared by means of homologous recombination in SF9 insect cells. The expression plasmids were cotransfected with Baculo-Gold DNA (Pharmingen, Hamburg) using a standard protocol (Pharmingen, Hamburg). Wt virus-free recombinant virus supernatants were selected using plaque assay methods. After that, high-titre virus supernatants were prepared by amplifying 3 times. PDE4B1 was expressed in SF21 cells by infecting 2×10^6 cells/ml with an MOI (multiplicity of infection) between 1 and 10 in the serum-free medium Insect Express Sf9-S2 (PAA, Pasching, Austria). The cells were cultured at 28° C. for 48-72 hours, after which they were pelleted for 5-10 min at 1000×g and 4° C.
The SF21 insect cells were resuspended, at a concentration of approx. 10^7 cells/ml, in ice-cold (4° C.) homogenization buffer (20 mM Tris, pH 8.2, containing the following additions: 140 mM NaCl, 3.8 mM KCl, 1 mM EGTA, 1 mM MgCl2, 10 mM (3-mercaptoethanol, 2 mM benzamidine, 0.4 mM Pefablock, 10 μM leupeptin, 10 μM pepstatin A, 5 μM trypsin inhibitor) and disrupted by ultrasonication. The homogenate was then centrifuged for 10 min at 1000×g and the supernatant was stored at −80° C. until subsequent use (see below). The protein content was determined by the Bradford method (BioRad, Munich) using BSA as the standard.
PDE4B1 activity was inhibited by the compounds according to the present subject matter in a modified SPA (scintillation proximity assay) test, supplied by Amersham Biosciences (see procedural instructions “phosphodiesterase [3H]cAMP SPA enzyme assay, code TRKQ 7090”), carried out in 96-well microtitre plates (MTP's). The test volume is 100 μl and contains 20 mM Tris buffer (pH 7.4), 0.1 mg/ml of BSA, 5 mM Mg^2+, 0.5 μM cAMP (including about 50,000 cpm of [3H]cAMP), 1 μl of the respective substance dilution in DMSO and sufficient recombinant PDE (1000×g supernatant, see above) to ensure that 10-20% of the cAMP is converted under the said experimental conditions. […] After a preincubation of 5 min at 37° C., the reaction is started by adding the substrate (cAMP) and the assays are incubated for a further 15 min; after that, they are stopped by adding SPA beads (50 μl). In accordance with the manufacturer's instructions, the SPA beads had previously been resuspended in water, but were then diluted 1:3 (v/v) in water; the diluted solution also contains 3 mM IBMX to ensure a complete PDE activity stop. After the beads have been sedimented (>30 min), the MTP's are analyzed in commercially available luminescence detection devices. The corresponding IC50 values of the compounds for the inhibition of PDE4B1 activity are determined from the concentration-effect curves by means of non-linear regression.

[2] = biological target: T2, PDE5A1 (Homo sapiens, UniProt O76074); assay: Inhibition of type 5 phosphodiesterase (PDE5) activity, modified SPA test with human platelet lysate; format: biochemical; conditions: 0.5 μM cGMP, read-out: PDE5A1 inhibitory values [measured as −log IC50 (mol/l)] (converted)
T2 construct: from tissue; host or cells: human platelets from fresh donor blood (10,000 x g supernatant of sonicated lysate)
Summary of the method: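 Scintillation proximity assay with [3H]cGMP tracer at 0.5 μM total cGMP, stopped after 15 min with beads containing IBMX. PDE3 and PDE2 activities suppressed with motapizone (1 μM) and a PDE2 inhibitor (10 nM). Human platelet supernatant served as the enzyme, with compound preincubated 5 min at 37° C; IC50 values from concentration-effect curves.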

Row | Compound | IC50 [1] [nM] | IC50 [2] [nM]
1 | CC(=O)N[C@H]1C[C@@H](F)[C@H](NC(=O)c2c(C)[nH]c3c(-c4cc(C(F)F)ccc4OCC4CC4)ncnc23)C1 (relative stereo) [Example P99, N-[(1R*,2R*,4R*)-4-(Acetylamino)-2-fluorocyclopentyl]-4-[2-(cyclopropylmethoxy)-5-(difluoromethyl)phenyl]-6-methyl-5H-pyrrolo[3,2-d]pyrimidine-7-carboxamide] | < 100 | 
2 | CCC(=O)N[C@H]1C[C@@H](F)[C@H](NC(=O)c2c(C)[nH]c3c(-c4cc(C(F)F)ccc4OCC4CC4)ncnc23)C1 (relative stereo) [Example P100, 4-[2-(Cyclopropylmethoxy)-5-(difluoromethyl)phenyl]-N-[(1R*,2R*,4R*)-2-fluoro-4-(propanoylamino)cyclopentyl]-6-methyl-5H-pyrrolo[3,2-d]pyrimidine-7-carboxamide] | < 100 | 
3 | COCC(=O)N[C@H]1C[C@@H](F)[C@H](NC(=O)c2c(C)[nH]c3c(-c4cc(C(F)F)ccc4OCC4CC4)ncnc23)C1 (relative stereo) [Example P101, 4-[2-(Cyclopropylmethoxy)-5-(difluoromethyl)phenyl]-N-{(1R*,2R*,4R*)-2-fluoro-4-[(methoxyacetyl)amino]cyclopentyl}-6-methyl-5H-pyrrolo[3,2-d]pyrimidine-7-carboxamide] | < 100 | 
4 | CCc1ccc(OCC2CC2)c(-c2ncnc3c(C(=O)NC4CN(C(=O)C(C)O)CC4O)c(C)[nH]c23)c1 (mixture of isomers) [Example F98, Diastereomeric mixture of 4-[2-(cyclopropylmethoxy)-5-ethylphenyl]-N{(3R,4R)-4-hydroxy-1-[(2S)-2-hydroxypropanoyl]pyrrolidin-3-yl}-6-methyl-5H-pyrrolo[3,2-d]pyrimidine-7-carboxamide and 4-[2-(cyclopropylmethoxy)-5-ethylphenyl]-N-{(3S,4S)-4-hydroxy-1-[(2S)-2-hydroxypropanoyl]pyrrolidin-3-yl}-6-methyl-5H-pyrrolo[3,2-d]pyrimidine-7-carboxamide] |  | 1 to 10
5 | CCC(=O)N1C[C@@H](O)[C@H](NC(=O)c2c(C)[nH]c3c(-c4cc(F)c(OC)cc4OCC4CC4)ncnc23)C1 (relative stereo) [Example E190, 4-[2-(Cyclopropylmethoxy)-5-fluoro-4-methoxyphenyl]-N-[(3R*,4R*)-4-hydroxy-1-propionylpyrrolidin-3-yl]-6-methyl-5H-pyrrolo[3,2-d]pyrimidine-7-carboxamide] |  | < 1
6 | Cc1[nH]c2c(-c3ccc(F)cc3OCC3CC3)ncnc2c1C(=O)N[C@H]1CC[C@@H](NC(=O)[C@H](C)O)CC1 [Example F16, 4-[2-(Cyclopropylmethoxy)-4-fluorophenyl]-N-(cis-4-{[(2S)-2-hydroxypropanoyl]amino}cyclohexyl)-6-methyl-5H-pyrrolo[3,2-d]pyrimidine-7-carboxamide] |  | < 1
7 | COCC(=O)N1CCC(NC(=O)c2c(C)[nH]c3c(-c4cc(OC)c(F)cc4OCC4CC4)ncnc23)CC1 [Example E104, 4-[2-(Cyclopropylmethoxy)-4-fluoro-5-methoxyphenyl]-N-[1-(methoxyacetyl)piperidin-4-yl]-6-methyl-5H-pyrrolo[3,2-d]pyrimidine-7-carboxamide] |  | < 1
8 | COc1cc(-c2ncnc3c(C(=O)N[C@H]4CC[C@@H](NC(C)=O)CC4)c(C)[nH]c23)c(OCC2CC2)cc1F [Example E110, N-(cis-4-Acetamidocyclohexyl)-4-[2-(cyclopropylmethoxy)-4-fluoro-5-methoxyphenyl]-6-methyl-5H-pyrrolo[3,2-d]pyrimidine-7-carboxamide] |  | < 1
9 | CCOC(=O)N1CCC(NC(=O)c2c(C)[nH]c3c(-c4cc(F)c(OC)cc4OCC4CC4)ncnc23)CC1 [Example E134, Ethyl 4-[({4-[2-(cyclopropylmethoxy)-5-fluoro-4-methoxyphenyl]-6-methyl-5H-pyrrolo[3,2-d]pyrimidin-7-yl}carbonyl)amino]piperidine-1-carboxylate] |  | < 1
10 | COc1ccc(-c2ncnc3c(C(=O)N[C@@H]4CN(C(=O)CO)C[C@H]4O)c(C)[nH]c23)c(OCC2CC2)c1 (relative stereo) [Example F39, 4-[2-(Cyclopropylmethoxy)-4-methoxyphenyl]-N-[(3R*,4R*)-1-glycoloyl-4-hydroxypyrrolidin-3-yl]-6-methyl-5H-pyrrolo[3,2-d]pyrimidine-7-carboxamide] |  | < 1
11 | CC(=O)N1CCC(NC(=O)c2c(C)[nH]c3c(-c4cc(C)c(F)cc4OCC4CC4)ncnc23)CC1 [Example E119, N-(1-Acetylpiperidin-4-yl)-4-[2-(cyclopropylmethoxy)-4-fluoro-5-methylphenyl]-6-methyl-5H-pyrrolo[3,2-d]pyrimidine-7-carboxamide] |  | < 1
12 | COc1cc(OCC2CC2)c(-c2ncnc3c(C(=O)N[C@@H]4CN(C(C)=O)C[C@H]4O)c(C)[nH]c23)cc1F (relative stereo) [Example E189, N-[(3R*,4R*)-1-Acetyl-4-hydroxypyrrolidin-3-yl]-4-[2-(cyclopropylmethoxy)-5-fluoro-4-methoxyphenyl]-6-methyl-5H-pyrrolo[3,2-d]pyrimidine-7-carboxamide] |  | < 1
13 | Cc1[nH]c2c(-c3c(OCC4CC4)ccc4c3OCO4)ncnc2c1C(=O)N[C@@H]1CN(C(=O)CO)C[C@H]1O (relative stereo) [Example F9, 4-[5-(Cyclopropylmethoxy)-1,3-benzodioxol-4-yl]-N-[(3R*,4R*)-1-glycoloyl-4-hydroxypyrrolidin-3-yl]-6-methyl-5H-pyrrolo[3,2-d]pyrimidine-7-carboxamide] |  | < 1
14 | CC(=O)N[C@H]1CC[C@H](NC(=O)c2c(C)[nH]c3c(-c4c(OCC5CC5)ccc5c4OCO5)ncnc23)CC1 [Example E5, N-(trans-4-acetamidocyclohexyl)-4-[5-(cyclopropylmethoxy)-1,3-benzodioxol-4-yl]-6-methyl-5H-pyrrolo[3,2-d]pyrimidine-7-carboxamide] |  | < 1
15 | CC(=O)N1CC[C@@H](NC(=O)c2c(C)[nH]c3c(-c4cc(F)ccc4OCC4CC4)ncnc23)[C@H](O)C1 (relative stereo) [Example E49, N-[(3R*,4R*)-1-acetyl-3-hydroxypiperidin-4-yl]-4-[2-(cyclopropylmethoxy)-5-fluorophenyl]-6-methyl-5H-pyrrolo[3,2-d]pyrimidine-7-carboxamide] |  | 1 to 10
16 | COc1cc(OCC2CC2)c(-c2ncnc3c(C(=O)N[C@@H]4CN(C(=O)[C@H](C)O)C[C@H]4O)c(C)[nH]c23)cc1F (relative stereo) [Example F118, 4-[2-(Cyclopropylmethoxy)-5-fluoro-4-methoxyphenyl]-N-{(3R*,4R*)-4-hydroxy-1-[(2S)-2-hydroxypropanoyl]pyrrolidin-3-yl}-6-methyl-5H-pyrrolo[3,2-d]pyrimidine-7-carboxamide] |  | < 1
17 | CC(=O)c1ccc(OCC2CC2)c(-c2ncnc3c(C(=O)NC4CCN(C(=O)CO)CC4)c(C)[nH]c23)c1 [Example F102, 4-[5-Acetyl-2-(cyclopropylmethoxy)phenyl]-N-[1-(hydroxyacetyl)piperidin-4-yl]-6-methyl-5H-pyrrolo[3,2-d]pyrimidine-7-carboxamide] |  | < 1
18 | COCC(=O)N1CC[C@H](O)[C@@H](NC(=O)c2c(C)[nH]c3c(-c4cc(OC)c(F)cc4OCC4CC4)ncnc23)C1 (relative stereo) [Example E118, 4-[2-(cyclopropylmethoxy)-4-fluoro-5-methoxyphenyl]-N-[(3S*,4S*)-4-hydroxy-1-(methoxyacetyl)piperidin-3-yl]-6-methyl-5H-pyrrolo[3,2-d]pyrimidine-7-carboxamide] |  | < 1
